# Data published in patent US20240366586A1, “METHODS AND AGENTS FOR MODULATING THE IMMUNE RESPONSE” (The Regents of the University of California, priority 2021, published 2024).
# Where a name gives a salt, the structure may show the parent alone.
# System: Il12b
# Experiment: Dual-fluorescence reporter macrophage cell line screen, lipopolysaccharide-stimulated: chromatinized Il12b-eGFP versus minimal Il12b-DsRed reporter
# Assay type: cell-based
# Details: additional compounds of Formulas (I)-(IV), same screening procedure
# Description: We hypothesized that molecules that inhibit the “chromatinized” Il12b reporter but not the “minimal” Il12b reporter would offer a greater degree of Il12b inhibition selectivity.
# We generated a dual-fluorescence reporter macrophage cell line having both a [Il12b]-[eGFP] chromatin-based construct and a [Il12b]-[DSred] plasmid vector. FIG. 3. We then stimulated an […] response in the cell line using lipopolysaccharide, an activator of Il12b expression, and tested a library of over 60,000 known and unknown (i.e., undescribed in the literature) small-molecule compounds.
# Additional compounds in Formulas (I)-(IV) were screened following the same procedure as described above, with eGFP fluorescence as a readout for inhibition of IL12b.
row,Structure (SMILES),"inhibition of IL12b, eGFP fluorescence as readout"
1,"O=C(N/N=C\c1ccc([N+](=O)[O-])o1)c1ccc(-c2ccccc2)cc1 [II-3, N—[(Z)-(5-nitrofuran-2-yl)methylideneamino]-4-phenylbenzamide]",Positive activity
2,"Cc1ccc(C)c2[nH]c(=O)c(CN(Cc3ccco3)C(=S)NCc3ccco3)cc12 [Compound I-10, 1-[(5,8-dimethyl-2-oxo-1H-quinolin-3-yl)methyl]-1,3-bis(furan-2-ylmethyl)thiourea]",Positive activity
3,"COc1ccc(Br)cc1/C=C/C(=O)c1ccc2c(c1)OCCO2 [IV-2, (E)-3-(5-bromo-2-methoxyphenyl)-1-(2,3-dihydro-1,4-benzodioxin-6-yl)prop-2-en-1-one]",Positive activity
4,"C/C(=N\NC(=O)c1cccc(Cl)c1)c1ccc([N+](=O)[O-])o1 [II-4, 3-chloro-N-[(E)-1-(5-nitrofuran-2-yl)ethylideneamino]benzamide]",Positive activity
5,"CCOc1ccc(NC(=S)N(Cc2ccco2)Cc2cc3ccc(C)cc3[nH]c2=O)cc1 [Compound I-6, 3-(4-ethoxyphenyl)-1-(furan-2-ylmethyl)-1-[(7-methyl-2-oxo-1H-quinolin-3-yl)methyl]thiourea]",Positive activity
6,"COc1ccc(OC)c(/C=C/C(=O)c2ccc(C)cc2)c1 [IV-3, (E)-3-(2,5-dimethoxyphenyl)-1-(4-methylphenyl)prop-2-en-1-one]",Positive activity
7,"O=c1cccc2n1C[C@H]1C[C@@H]2CN(Cc2ccc3ccc4cccc5ccc2c3c45)C1 [III-2, (1R,9S)-11-(pyren-1-ylmethyl)-7,11-diazatricyclo[7.3.1.0^2,7]trideca-2,4-dien-6-one]",Positive activity
8,"Cc1ccc(NC(=O)N(Cc2ccco2)Cc2cc3cc4c(cc3[nH]c2=O)OCO4)cc1 [Compound I-7, 1-(furan-2-ylmethyl)-3-(4-methylphenyl)-1-[(6-oxo-5H-[1,3]dioxolo[4,5-g]quinolin-7-yl)methyl]urea]",Positive activity
9,"CCOc1ccc2[nH]c(=O)c(CN(Cc3ccco3)C(=O)c3ccc(C(C)(C)C)cc3)cc2c1 [Compound I-3, 4-tert-butyl-N-[(6-ethoxy-2-oxo-1H-quinolin-3-yl)methyl]-N-(furan-2-ylmethyl)benzamide]",Positive activity
10,"CCc1ccc2[nH]c(=O)c(CN(Cc3ccco3)C(=S)NCc3ccccc3)cc2c1 [Compound I-9, 3-benzyl-1-[(6-ethyl-2-oxo-1H-quinolin-3-yl)methyl]-1-(furan-2-ylmethyl)thiourea]",Positive activity
11,"O=C(Cc1ccc(Cl)cc1)N/N=C\c1ccc([N+](=O)[O-])o1 [II-5, 2-(4-chlorophenyl)-N—[(Z)-(5-nitrofuran-2-yl)methylideneamino]acetamide]",Positive activity
12,"CCOc1ccc(C(=O)/C=C/c2cccc(OC)c2OC)cc1 [IV-5, (E)-3-(2,3-dimethoxyphenyl)-1-(4-ethoxyphenyl)prop-2-en-1-one]",Positive activity
13,"COc1ccc(C(=O)/C=C/c2cccc(Cl)c2)cc1OC [IV-4, (E)-3-(3-chlorophenyl)-1-(3,4-dimethoxyphenyl)prop-2-en-1-one]",Positive activity
14,"CCOc1ccc2[nH]c(=O)c(CN(Cc3ccco3)C(=O)c3cccs3)cc2c1 [Compound I-11, N-[(6-ethoxy-2-oxo-1H-quinolin-3-yl)methyl]-N-(furan-2-ylmethyl)thiophene-2-carboxamide]",Positive activity
15,"O=C(N/N=C\c1ccc([N+](=O)[O-])o1)c1cccc2ccccc12 [II-6, N—[(Z)-(5-nitrofuran-2-yl)methylideneamino]naphthalene-1-carboxamide]",Positive activity
16,"CCOc1ccc2[nH]c(=O)c(CN(Cc3ccco3)C(=O)Nc3ccc(OC)cc3)cc2c1 [Compound I-5, 1-[(6-ethoxy-2-oxo-1H-quinolin-3-yl)methyl]-1-(furan-2-ylmethyl)-3-(4-methoxyphenyl)urea]",Positive activity
17,"O=C(CCc1ccccc1)N/N=C\c1ccc([N+](=O)[O-])s1 [II-2, N—[(Z)-(5-nitrothiophen-2-yl)methylideneamino]-3-phenylpropanamide]",Positive activity
18,"O=C(NCc1ccccc1)N(Cc1ccco1)Cc1cc2cc3c(cc2[nH]c1=O)OCO3 [Compound I-8, 3-benzyl-1-(furan-2-ylmethyl)-1-[(6-oxo-5H-[1,3]dioxolo[4,5-g]quinolin-7-yl)methyl]urea]",Positive activity
19,"Cc1ccc(NC(=O)N(Cc2ccco2)Cc2cc3cc4c(cc3[nH]c2=O)OCCO4)cc1 [Compound I-4, 1-(furan-2-ylmethyl)-3-(4-methylphenyl)-1-[(7-oxo-3,6-dihydro-2H-[1,4]dioxino[2,3-g]quinolin-8-yl)methyl]urea]",Positive activity
20,"COc1cc(OC)cc(C(=O)N(Cc2ccc(F)cc2)Cc2cc3c(C)ccc(C)c3[nH]c2=O)c1 [Compound I-2, N-[(5,8-dimethyl-2-oxo-1H-quinolin-3-yl)methyl]-N-[(4-fluorophenyl)methyl]-3,5-dimethoxybenzamide]",Positive activity

# Same assay, conditions: lipopolysaccharide-stimulated dual-fluorescence reporter macrophage cell line
row,Structure (SMILES),selective inhibition of the chromatinized Il12b reporter (eGFP) but not the minimal reporter (DsRed)
1,"Cc1cc2ncn(N=Cc3ccc([N+](=O)[O-])o3)c2cc1C [UK6, 5,6-dimethyl-N-[(5-nitro-2-furyl)methylene]-1H-benzimidazol-1-amine]",selective inhibitors of chromatinized Il12b
2,O=C(/C(=C/c1cccnc1)c1nc2ccccc2[nH]1)c1ccccc1 [2-(1H-benzimidazol-2-yl)-1-phenyl-3-(3-pyridinyl)-2-propen-1-one],selective inhibitors of chromatinized Il12b
3,"CCOC(=O)C(=Cc1ccc2c(c1)C(=O)CC2=O)C(=O)OCC [diethyl [(1,3-dioxo-2,3-dihydro-1H-inden-5-yl)methylene]malonate]",selective inhibitors of chromatinized Il12b
4,CC[n+]1c2ccccc2nc2ccccc21 [5-ethylphenazin-5-ium ethyl sulfate],selective inhibitors of chromatinized Il12b
5,NC(=O)c1ccccc1/N=C/c1ccc([N+](=O)[O-])s1 [2-{[(5-nitro-2-thienyl)methylene]amino}benzamide],selective inhibitors of chromatinized Il12b
6,CC(=O)Nc1ccc(Br)cc1-c1ccccc1 [N-(5-bromo-2-biphenylyl)acetamide],selective inhibitors of chromatinized Il12b
7,O=c1cc(C(Cl)(Cl)Cl)oc2ccc(Cl)cc12 [6-chloro-2-(trichloromethyl)-4H-chromen-4-one],selective inhibitors of chromatinized Il12b
8,C/C(=C\c1cccc2ccccc12)[N+](=O)[O-] [1-(2-nitro-1-propen-1-yl)naphthalene],selective inhibitors of chromatinized Il12b
9,CCOc1ccc(/C=C/[N+](=O)[O-])cc1 [1-ethoxy-4-(2-nitrovinyl)benzene],selective inhibitors of chromatinized Il12b

# System: Il12b
# Experiment: RNA-Seq / ATAC-Seq of lipopolysaccharide-induced genes in treated macrophages
# Assay type: cell-based
# Details: RNA-Seq and ATAC-Seq analyses, macrophages
# Description: Our screening experiment identified as compounds that […]. Using ATAC-Seq and RNA-Seq analyses, we confirmed that the screen indeed identified hits that work by affecting chromatin, and confirmed that β adrenergic agonists, (and in particular β2 adrenergic agonists) are indeed exquisitely selective inhibitors of Il12b gene expression.
# The inhibition of Il12b by β agonists occurs upon stimulation of macrophages with other inflammatory stimuli, including CpG DNA, double stranded RNA, and imiquimod. We confirmed that the cAMP/PKA pathway, but not the exchange factor directly activated by cAMP (EPAC) pathway, was largely responsible for mediating the Il12b suppression by 0-agonists.
# FIG. 7B depicts a fold change box plot in samples treated with UK17 (3-fluoro-N′-[(5-nitro-2-thienyl)methylene]benzohydrazide (CID #6895129)), classifying lipopolysaccharide-induced genes by gene-regulation cluster as previously described in Tong A. et al., A Stringent Systems Approach Uncovers Gene-Specific Mechanisms Regulating Inflammation, Cell 165 165-179 (2016). Box plots indicate the distribution of fold change values for each cluster. Red lines are drawn at 1 and −1, indicating a 2-fold up or down-regulation of genes. Il12b is labeled in red.
row,Structure (SMILES),selective inhibition of Il12b gene expression
1,"CCCC(=O)Nc1ncnc2c1ncn2[C@@H]1O[C@@H]2COP(=O)(O)O[C@H]2[C@H]1OC(=O)CCC [dibutyryl cyclic AMP, reference compound]",selectively inhibit IL12b expression

# Same assay, conditions: genes with RPKM>4 and FC>10, ranked by fold change (Max RPKM with/without compound)
row,Structure (SMILES),rank of Il12b among the most strongly inhibited lipopolysaccharide-induced genes
1,"Cc1cc2ncn(N=Cc3ccc([N+](=O)[O-])o3)c2cc1C [UK6, 5,6-dimethyl-N-[(5-nitro-2-furyl)methylene]-1H-benzimidazol-1-amine]",≤ 20
